Assay results taken from patent US20050124647A1, “Tricyclic derivatives of indole with antiangiogenic activity” (Sigma-Tau Industrie Farmaceutiche Riunite S.p.A., priority 2000, published 2005).
Like-named read-outs stand apart in the source and are kept apart here.

Columns and labels:
MCF-7/DX = assay: Antiproliferative activity vs resistant cell MCF-7/DX; assay type: cell-based; conditions: Homo sapiens, MCF7/DX; resistant cell (doxorubicin-resistant, P-glycoprotein overexpressing); read-out: IC50 +/− SD, MCF-7/DX
Procedure: (§1) The test used was the sulforodamine B test used for screening anticancer products at the National Cancer Institute (Skehan, 1990). The molecules at scalar concentrations over a range from 500 μM to 0.97 μM, were incubated in parallel with different human cell lines for 24 hours. After removing the products, cell survival was investigated after another 48 hours with the NCI test. The antiproliferative capacity of the compounds was quantified in terms of IC50±SD (concentration of the molecule that inhibits 50% of cell survival) processed using a curve fitting program (De Lean et al., 1978).
(§2) The cytotoxicity of the molecules on tumour lines resistant to chemosensitising activity was assessed on various tumour cell lines overexpressing P-glycoprotein and resistant to doxorubicin (100-fold) and cross-resistant to daunorubicin, actinomycin D, mitoxantrone, vincristine, vinblastine, taxol, colchicine, and etoposide. The cytotoxicity of the products was assessed using the same test adopted for the sensitive tumour cells.

BMEC [1] = assay: Cytotoxicity on endothelial cells (BMEC); assay type: cell-based, bovine
LoVo/DX = assay: Antiproliferative activity vs resistant cell LoVo/DX; assay type: cell-based; conditions: Homo sapiens, resistant cell (doxorubicin-resistant, P-glycoprotein overexpressing), read-out: IC50 +/− SD, LoVo/DX
Procedure: as §1, §2

BMEC [2] = assay: Chemotactic assay with the Boyden chamber on BMEC; assay type: cell-based, bovine
Procedure: For the antiangiogenic activity the chemotactic assay with the Boyden chamber was performed (Werner F., Goodwin R. H. and Leonard E. J., Journal of Immunological Methods 1980; 33, 239-247), using both bovine aortal endothelial cell (BAEC) cultures and bovine medullary endothelial cell (BMEC) cultures. The assays were performed at IC0 (maximum non-cytotoxic concentration) and the results expressed as % inhibition of migration across a porous filter in response to a chemotactic stimulus (1% bovine serum in DMEM culture medium). This finding was obtained by direct cell count under the optical microscope, and the percentage migration inhibition was calculated according to the formula (T−C/C)×100, where T=mean number of cells migrating in the sample and C=mean number of cells migrating in the control. The control consisted of cells which migrated towards the serum, not treated with the study molecules, and included in every chemotaxis experiment. The data refer to the readings of 5 microscopic fields/well in 4 independent chemotaxis wells per sample.

SMILES	IC50 (MCF-7/DX)	IC0 (maximum non-cytotoxic concentration) (BMEC [1])	IC50 (LoVo/DX)	activity on chemotaxis of endothelial cells (in words) (BMEC [2])	activity on chemotaxis of endothelial cells (in words) (BMEC [2]; listed as ST 1381)
c1[nH]c2cc3c(cc2c1C1CCCc2c1[nH]c1cc4c(cc21)OCO4)OCO3 (racemic) [ST1751, 1-(5′,6′-methylendioxy-1H-indol-3-yl)-6,7-methylendioxy-tetrahydro-1H-carbazole]	58.6 µM	–	–	–	–
Oc1ccc2[nH]cc(C3CCCCc4c3[nH]c3ccc(O)cc43)c2c1 (racemic) [ST1783, 1-(5″-hydroxy-1H-indol-3-yl)-5′-hydroxy-indo[2,3a]-cycloheptan]	39 µM	10 µM	–	–	–
c1ccc2c(C3CCCCc4c3[nH]c3ccccc43)c[nH]c2c1 (racemic) [ST1381, 1-(indol-3-yl)-indo[2,3a]-cycloheptan.]	28.4 µM	30 µM	25.2 µM	active	better anti-chemiotactic compound
c1ccc(COc2ccc3[nH]cc(C4CCCCc5[nH]c6ccc(OCc7ccccc7)cc6c54)c3c2)cc1 (racemic) [ST1778, 5-(5″-benzyloxy-indol-3-yl)-5′-benzyloxy-indo[2,3a]-cycloheptan.]	71 µM	25 µM	65.1 µM	–	–
c1ccc2c(C3CCCc4[nH]c5ccccc5c43)c[nH]c2c1 (racemic) [ST1729, 4-(1H-indol-3-yl)-tetrahydro-1H-carbazole]	–	25 µM	–	–	–
c1[nH]c2cc3c(cc2c1C1CCCCc2c1[nH]c1cc4c(cc21)OCO4)OCO3 (racemic) [ST1749, 1-(5″,6″-methylendioxy-indol-3-yl)-5′,6′-methylendioxy-indo[2,3-a]-cycloeptane]	–	100 µM	–	–	–
c1ccc2c(C3CCCCc4[nH]c5ccccc5c43)c[nH]c2c1 (racemic) [ST1621, 5-(indol-3-yl)-indo(2,3a]-cycloheptan.]	68.3 µM	0.1 µM	23.8 µM	–	–
CC1(C)OCC(C2c3c([nH]c4ccccc34)C(c3c[nH]c4ccccc34)C3OC(C)(C)OC32)O1 (racemic) [ST1372, 1-(indol-3-yl)-2,3-O-isopropylidene-4-(2,3-O-isopropylidene-ethyl)-tetra-hydrocarbazole]	26.9 µM	–	26.3 µM	–	–
c1ccc(COc2ccc3[nH]cc(C4CCCCc5c4[nH]c4ccc(OCc6ccccc6)cc54)c3c2)cc1 (racemic) [ST1765, 1-(5″-benzyloxy-indol-3-yl)-5′-benzyloxy-indo[2,3a]-cycloheptan]	24.8 µM	–	17 µM	–	–
